Test results reported in publication PMC9956360, “Production of a Fungal Punicalagin-Degrading Enzyme by Solid-State Fermentation: Studies of Purification and Characterization” (Foods, 2023).

Tested on: T1, EAH (EAH 1 and EAH 2), ellagitannin-acyl hydrolase identified as alpha-L-arabinofuranosidase
T1 construct: gene abfB; native secreted protein from solid-state fermentation, co-purified mixture; 499 residues each; domains ArabFuran-catal (20-334 / 20-333) and AbfB (352-493)
Assay: Lineweaver-Burk
Type: biochemical, Aspergillus niger
Details: mixture of two co-purified isoforms; temperature and pH of kinetics not stated
Source text: Lineweaver-Burk on EAH (EAH 1 and EAH 2), ellagitannin-acyl hydrolase identified as alpha-L-arabinofuranosidase

COC(=O)c1cc(O)c(O)c(O)c1 [methyl gallate]
Km: 6.66 mM
